Measured values: US12187672B2, “1,2-diacylglycerol compound, preparation method therefor, and immunomodulator containing same as active ingredient” (ENZYCHEM LIFESCIENCES CORPORATION, priority 2018, dated 2025)

Experiments:
IL-6 = experiment: LPS-induced IL-6 secretion reduction in RAW264.7 cells (ELISA); format: cell-based, mouse; settings: sample 100 μg/ml 1 h, then LPS 1 μg/ml 24 h, Table 2
Description: In DMEM (Dulbecco Modified Eagle Medium, Hyclone, Thermo Scientific) medium to which 10% Fetal Bovine Serum was added, RAW264.7 cells, a mouse macrophage family, were suspended at a concentration of 1×10^5 cells/ml, and culture was conducted in a 5% CO2 humidified incubator at 37° C. The cultured RAW264.7 cells were inoculated into a 48 well plate by 5×10^4 cells/ml and stabilized for 15 hours. Then, the culture solution was treated with a glycerol derivative compounds of the type shown in Table 2 and 3 below for 1 hour and then was treated with 1 μg/ml of Lipopolysaccaride (LPS) of a cell stimulator, and subsequent further incubation was conducted for 24 hours. Thereafter 0.5 ml of the culture supernatant was collected for each well and centrifuged (at 3000 rpm, 5 minutes) to recover the supernatant. The IL-6 level in the recovered supernatant was measured according to the manual provided by the Mouse IL-6 ELISA set (BD Biosciences). The day before ELISA was carried out, the IL-6 capture antibody was diluted in phosphate buffered saline, coated on a microwell, and then stored at 4° C. overnight. Each well was washed three times with a buffer solution and then blocked with 2% Bovine Serum Albumin (BSA) for 1 hour at room temperature. After washing with buffer solution three times, […] of sample was dispensed into each well and left at room temperature for 2 hours. Detection antibody which was washed 3 times with washing buffer solution and diluted was dispensed into each well and allowed to react at room temperature for 1 hour and left at room temperature for 1 hour. Thereafter, the secondary HRP conjugated antibody was reacted at room temperature for 30 minutes, washed three times with a buffer solution, and treated with 50 μl of stop solution for each well, and then the optical density was measured at 450 nm with an ELISA microplate leader. The results of the IL-6 expression reduction rate (IL-6 concentration) are shown in Table 2, Table 3, FIG. 1 and FIG. 2 below.

CXCL8 (IL-8) = CXCL8 (IL-8) expression reduction in Gemcitabine-treated THP-1 cells (ELISA); format: cell-based, human; settings: THP-1 cells; sample 100 μg/ml 1 h, then Gemcitabine 2 μg/ml 24 h
Description: In RPMI (Hyclone, Thermo Scientific) medium to which 10% Fetal Bovine Serum was added, THP-1 cells, a human macrophage family, were suspended at a concentration of 1×10^5 cells/ml, and culture was conducted in a 5% CO2 humidified incubator at 37° C. The cultured THP-1 cells were inoculated into a 12 well plate by 1×10^6 cells/ml and stabilized for 30 minutes. Then, the culture solution was treated with a glycerol derivative compounds of the type shown in Table 6 below for 1 hour and then was treated with Gemcitabine (2 μg/ml) of a cell stimulator, and subsequent further incubation was conducted for 24 hours. Thereafter 1.5 ml of the culture supernatant was collected for each well and centrifuged (at 3000 rpm, 5 minutes) to recover the supernatant. The CXCL8 (IL-8) level in the recovered supernatant was measured according to the manual provided by the human IL-8 ELISA set (BD Biosciences). The day before ELISA was carried out, the IL-8 capture antibody was diluted in phosphate buffered saline, coated on a microwell, and then stored at 4° C. overnight. Each well was washed three times with a buffer solution and then blocked with 2% Bovine Serum Albumin (BSA) for 1 hour at room temperature. After washing with washing buffer solution three times, 100 μl of sample was dispensed into each well and left at room temperature for 2 hours. Detection antibody which was washed 3 times with washing buffer and diluted was dispensed into each well and allowed to react at room temperature for 1 hour and left at room temperature for 1 hour. Thereafter, the secondary HRP conjugated antibody was reacted at room temperature for 30 minutes, washed three times with a washing buffer, and treated with 50 μl of stop solution for each well, and then the optical density was measured at 450 nm with an ELISA microplate leader.

HL-60 cells = experiment: Migration of HL-60 cell line toward THP-1 culture supernatant (transmigration assay); format: cell-based, human; settings: supernatant of THP-1 cells treated with sample 100 μg/ml 1 h, then Gemcitabine 2 μg/ml 24 h
Description: In RPMI (Hyclone, Thermo Scientific) medium to which 10% Fetal Bovine Serum was added, THP-1 cells, a human macrophage family, were subcultured at a concentration of 1×10^5 cells/ml, and culture was conducted in a 5% CO2 humidified incubator at 37° C. In order to prepare the THP-1 cell culture solution to be treated in the lower well during the transmigration assay, first, the cultured THP-1 cells were inoculated into a 12 well plate by 1×10^6 cells/ml and stabilized for 30 minutes. Then, the culture solution was treated with a glycerol derivative compounds of the type shown in Table 7 below for 1 hour and then was treated with Gemcitabine (2 μg/ml) of a cell stimulator, and subsequent further incubation was conducted for 24 hours. Thereafter 1.5 ml of the culture supernatant was collected for each well and centrifuged (at 3000 rpm, 5 minutes) to recover the supernatant. The CXCL8 (IL-8) level in the recovered supernatant was measured according to the manual provided by Cultrex 96 well Laminin Cell Invasion assay. The day before Transmigration assay was carried out, a 1× Lamin I solution was treated in the upper Invasion Chamber and coated. Thereafter, in RPMI (Hyclone, Thermo Scientific) medium to which 10% Fetal Bovine Serum was added, the cultured HL-60 cells were despensed of 5×10^4 cells/chamber, and 150 μl of the THP-1 culture supernatant prepared in advance was added to the lower chamber. Thereafter the upper chamber was removed, and the cells were attached to the bottom of the lower chamber by a centrifuge, and then the supernatant was removed. Cell dissociation/Calcein-AM solution was added and reacted for 1 hour. Then, the value obtained using a fluorescence spectroscopy was calculated by converting the number of cells.

STAT6 = experiment: IL-4-induced STAT6 activity, pGL4-STAT6 luciferase reporter in A549 cells; format: cell-based; settings: sample 100 μg/ml 1 h, then IL-4 (2 ng/ml) 20 h, Table 9
Description: In DMEM (Dulbecco Modified Eagle Medium, Hyclone, Thermo Scientific) medium to which 10% Fetal Bovine Serum was added, A549 cells were subcultured at a concentration of 1×10^5 cells/ml, and culture was conducted in a 5% CO2 humidified incubator at 37° C. The cultured A549 cells were inoculated into a 48 well plate by 1×10^5 cells/ml and stabilized for 18 hours. Thereafter, pGL4-STAT6 reporter vector containing a STAT6 binding promoter portion was mixed with Attractene to induce complex formation at room temperature for 15 minutes. This complex was treated with the cells and then further incubated for 24 hours. Thereafter, the culture solution was treated with a glycerol derivative compounds of the type shown in Table 9 and 10 below for 1 hour, and then IL-4 (2 ng/ml or 10 ng/ml) was further incubated for 20 hours for STAT6 activity. Thereafter, the culture supernatant was removed for each well, and the remaining cells were lysed with a cell lysis buffer, and then cell lysate was recovered. 90 μl of luciferase reagent was mixed with 10 μl of the recovered cell lysate, and the degree of fluorescence was confirmed using a luminometer. The results are shown in Table 9, Table 10, FIG. 9 and FIG. 10 below.

STAT3 = experiment: IL-6-induced STAT3 activity, SEAP expression in HEK-Blue IL-6 cells; format: cell-based; settings: HEK-Blue IL-6 cells; for decrease of STAT3 activity compared to the IL-6 cytokine-treated group: 100 μg/ml; for STAT3 activity_SEAP expression(%) (average ± deviation): sample 100 μg/ml 1 h, then IL-6 5 ng/ml 24 h, negative control = 100
Description: HEK-Blue™ IL-6 cells were used to confirm STAT3 activity by STAT3-induced SEAP (secreted embryonic alkaline phosphatase) expression. In DMEM (Hyclone, Thermo Scientific) medium to which 10% Fetal Bovine Serum was added, HEK-Blue™ IL-6 cells were cultured at a concentration of 1×10^5 cells/ml, and maintained in a 5% CO2 humidified incubator at 37° C. The cultured HEK-Blue™ IL-6 cells were inoculated by 1×10^5 cells/ml. Then, the culture solution was treated with a glycerol derivative compounds of the type shown in Table 4 below for 1 hour and then IL-6 (5 ng/ml) was further incubated for 24 hours for STAT3 activity. Thereafter, the culture supernatant was collected for each well and centrifuged (at 3000 rpm, 5 minutes) to recover the supernatant. The SEAP expression level in the recovered supernatant was mixed with Quanti blue reagent and the supernatant at a ratio of 1:10 and left at 37° C. for about 30 minutes. Then, the SEAP concentration was confirmed at 650 nm wavelength using a spectrophotometer, and the results (STAT3 activity inhibitory ability) thereof are shown in Table 4 and FIG. 3 below.

IL-4 = experiment: PKC activator-induced IL-4 secretion reduction in EL-4 cells (ELISA); format: cell-based, mouse; settings: sample 100 μg/ml 2 h, then PKC activator 18 h, Table 11
Description: In DMEM (Dulbecco Modified Eagle Medium, Hyclone, Thermo Scientific) medium to which 10% Fetal Bovine Serum was added, EL-4 cells, a mouse lymphoma family, were subcultured at a concentration of 1×10^5 cells/ml, and culture was conducted in a 5% CO2 humidified incubator at 37° C. The cultured EL-4 cells were inoculated into a 48 well plate by 5×10^4 cells/ml and stabilized for 30 hours. Then, the culture solution was treated with a glycerol derivative compounds of the type shown in Table 11 and 12 below for 2 hours. Thereafter, it were treated with 0.5 μg/ml of PKC activator (p10, some kind of PMA) of a cell stimulator, and subsequent further incubation were conducted for 18 hours. Thereafter 0.5 ml of the culture supernatant was collected for each well and centrifuged (at 3000 rpm, 5 minutes) to recover the supernatant. The IL-4 level in the recovered supernatant was measured according to the manual provided by the Mouse IL-4 ELISA set (BD Biosciences). The day before ELISA was carried out, the IL-4 capture antibody was diluted in phosphate buffered saline, coated on a microwell, and then stored at 4° C. overnight. Each well was washed three times with a buffer solution and then blocked with 2% Bovine Serum Albumin (BSA) for 1 hour at room temperature. After washing with buffer solution three times, 100 μl of sample was dispensed into each well and left at room temperature for 2 hours. Detection antibody which was washed 3 times with washing buffer solution and diluted was dispensed into each well and allowed to react at room temperature for 1 hour and left at room temperature for 1 hour. Thereafter, the secondary HRP conjugated antibody was reacted at room temperature for 30 minutes, washed three times with buffer solution, and treated with 50 μl of stop solution for each well, and then the optical density was measured at 450 nm with an ELISA microplate leader. The results of the measured expression reduction rate ([…]) were shown in Table 11, Table 12, FIG. 11 and FIG. 12 below.

| SMILES | IL-6 concentration (average ± deviation) (IL-6) [µg/mL] | CXCL8 [IL-8] concentration (average ± deviation) (CXCL8 (IL-8)) [pg/µL] | Number of HL-60 cells migrated through Transwell (HL-60 cells) [Cell Number] | STAT6 activity_Luciferase activity (average ± deviation) (STAT6) | decrease of STAT3 activity compared to the IL-6 cytokine-treated group (STAT3) | STAT3 activity_SEAP expression(%) (average ± deviation) (STAT3) | IL-4 concentration (average ± deviation) (IL-4) [pg/µL] |
| --- | --- | --- | --- | --- | --- | --- | --- |
| CCCCC/C=C\C/C=C\CCCCCCCC(=O)OC(COC(=O)CCCCCCCCCCCCCCC)COC(=O)c1ccccc1 (centres unmarked) [EC_A16] | 0.238 ± 0.008 | 135.1 ± 2.3 | 26348.9 | 964.5 ± 170.3 | about 25% | 171.1 ± 17.5 |  |
| CCCCC/C=C\C/C=C\CCCCCCCC(=O)OC(COC(=O)CCCCCCCCCCCCCCC)COC(C)OC (centres unmarked) [EC_A70-1] | 0.144 ± 0.028 | 200.1 ± 1.0 | 4047.1 |  |  | 259.5 ± 28.4 | 865.6 ± 127.9 |
| CCCCC/C=C\C/C=C\CCCCCCCC(=O)OC(COC)COC(=O)CCCCCCCCCCCCCCC (centres unmarked) [EC_A13] | 0.266 ± 0.024 | 96.6 ± 0.2 | 8679.7 | 1150.2 ± 44.9 | about 25% | 167.2 ± 8.4 |  |
